# Assay results taken from PMC8504577, “Evaluation of a Clinically Relevant Drug–Drug Interaction Between Rosuvastatin and Clopidogrel and the Risk of Hepatotoxicity” (Frontiers in Pharmacology, 2021).
# Values joined by “and” are separate entries in the source; they are usually repeats but may differ in a detail not shown here. Identical values can stand only once. “Also recorded” adds a separate entry of the source. Like-named read-outs stand apart in the source and are kept apart here.
# Columns and labels:
# [1] = system: human primary hepatocytes; assay: Cytotoxicity (MTT, AST, LDH) in cryopreserved human hepatocytes; assay type: cell-based
# Description: (§1) Cytotoxicity was determined with MTT assay in cryopreserved human hepatocytes. Thawing and plating of cryopreserved hepatocytes were carried out according to the manufacturer’s protocol. […] 11 μL of 5 mg/ml MTT was added to each well of the plate, and then the plate was incubated at 37°C for 3–4 h. After the medium was aspirated, 150 μL of DMSO was added to dissolve the formazan. The absorbance at 570 nm was measured and corrected for background absorption at 690 nm using a SpectraMax® i3 plate reader (Molecular Devices, Silicon Valley, CA, United States). AST and LDH levels in the medium of parallel processed plates were measured by commercially available assay kits. […] All experiments were performed in triplicate.
# [2] = cited from earlier work; for I1, peak plasma concentration at steady state: ref Itkonen et al. (2015)
# [3] = Plasma pharmacokinetic study in rats
# Description: For the plasma pharmacokinetic study, 16 rats were randomly assigned into four groups (n = 4, each group, groups I to IV) and received oral (p.o.) administrations as oral gavage of CP (27 mg/kg) or the same volume of vehicle control for 20 days. Then, the rats were made to fast overnight before dosing but with free access to water. On day 21, rats in group I were treated with a p.o. dose as oral gavage of CP at 27 mg/kg and a single intravenous (i.v.) dose of RSV at 5 mg/kg. Rats in group II were treated with a p.o. dose as oral gavage of vehicle control and a single i.v. dose of RSV at 5 mg/kg. Rats in group Ⅲ were treated with a p.o. dose as oral gavage of CP at 27 mg/kg and a p.o. dose as oral gavage of RSV at 5 mg/kg. Rats in group Ⅳ were treated with a p.o. dose as oral gavage of vehicle control and a p.o. dose as oral gavage of RSV at 5 mg/kg. Blood samples (0.15 ml) were collected at 0, 1, 2, 5, 15, 30, 60, 120, 180, 360, 480, 600, and 720 min after administration of the i.v. dose of the RSV group and at 0, 5, 30, 60, 120, 180, 360, 480, 600, and 720 min for the p.o. dose as oral gavage of the RSV group. After each sampling, a volume of 0.15 ml physiologic saline solutions was administered to sustain isotonic fluid balance. Plasma samples were harvested by using a centrifuge and then stored at −80°C until analysis by LC-MS/MS.
# A Shimadzu LC-30AD liquid chromatography system (Shimadzu, Kyoto, Japan) and an API4000 triple quadruple tandem mass spectrometer (Applied Biosystems/Sciex, Framingham, MA, United States) coupled with an ESI source was used for the LC-MS/MS analysis of in vivo samples. The separation was carried out on an Agilent Extend C18 column (1.8 µm, 4.6 mm × 30 mm, Agilent Technologies). The mobile phase consisting of acetonitrile (A) and water (B: 1 mM ammonium acetate and 1% (V/V) formic acid). […] The flow rate was 1 ml/min and the gradient elution method was as follows: 0.01 min (10% A)-0.4 min (10% A), 0.8 min (95% A)-2.0 min (95% A), and 2.3 min (10% A)-2.5 min (stop).
# Phoenix WinNonlin® 7.1 (Pharsight Corporation, Mountain View, CA, United States) was used to calculate the pharmacokinetic parameters by the noncompartmental method. IC50 values were obtained by a computer-generated nonlinear least squares fit using GraphPad Prism 8.1 (GraphPad Software, San Diego, CA, United States). Statistical analysis was performed using SPSS ver. 22.0 (IBM, Chicago, IL, United States). The results are presented as mean ± S.D., unless otherwise stated. After testing for the homogeneity of variance, statistical analysis was performed with a one-way ANOVA followed by the LSD post hoc test or unpaired Student’s t-test. A probability (p) of less than 0.05, 0.01, and 0.001 was considered to be statistically significant, highly significant, and extremely significant, respectively.
# [4] = system: human primary hepatocytes
# Description: Cytotoxicity was determined with MTT assay in cryopreserved human hepatocytes. Thawing and plating of cryopreserved hepatocytes were carried out according to the manufacturer’s protocol. Primary human hepatocytes at a density of 7×10^4 cells/well were cultured for 24 h after plating in 96-well collagen-coated plates. Then, the hepatocytes were treated with varying concentrations of RSV, CP, RSV plus CP, or tamoxifen and incubated for 24 or 96 h at 37°C. 11 μL of 5 mg/ml MTT was added to each well of the plate, and then the plate was incubated at 37°C for 3–4 h. After the medium was aspirated, 150 μL of DMSO was added to dissolve the formazan. The absorbance at 570 nm was measured and corrected for background absorption at 690 nm using a SpectraMax® i3 plate reader (Molecular Devices, Silicon Valley, CA, United States). AST and LDH levels in the medium of parallel processed plates were measured by commercially available assay kits. […] All experiments were performed in triplicate.
# A Shimadzu LC-20AD liquid chromatography system (Shimadzu, Kyoto, Japan) and an API5000 triple quadrupole tandem mass spectrometer (Applied Biosystems/Sciex, Framingham, MA, United States) coupled with an electrospray ionization (ESI) source was used for the determination of in vitro samples. Chromatographic separation was conducted with gradient elution on a Synergi Hydro-RP column (30 × 2.0 mm, 4 μm, Phenomenex, Torrance, CA, United States). […] The mobile phase consisted of methanol (A) and water (B), both containing 0.1% (V/V) formic acid. The flow rate was 0.5 ml/min and the gradient elution was run using the following program: 0.01 min (15% A)-1.0 min (95% A), 1.5 min (95% A)-1.51 min (15% A), 2.5 min (stop).
# [5] = Cytotoxicity (MTT, AST, LDH) in cryopreserved human hepatocytes; assay type: cell-based; details: human, cryopreserved primary human hepatocytes; 96 h incubation
# Description: as §1
# rats = assay: Biochemical examination of liver function indices in rats; assay type: in vivo, Sprague-Dawley rats; details: rat plasma
# Description: After the last sample in the plasma pharmacokinetic study, all rats were deeply anesthetized and exsanguinated by severing the abdominal aorta. Blood and liver samples were harvested. The plasma was used for the assay of alanine aminotransferase (ALT), aspartate aminotransferase (AST), total bilirubin (TBIL), unconjugated bilirubin (IBIL), and conjugated bilirubin (DBIL) by an automatic analyzer (Beckman Coulter, Brea, CA, United States).
# [6] = in 5 days after p.o. administration, ref Sanofi-Aventis, 2011
# [7] = rats, p.o. RSV (group III vs IV)
# [8] = rats, p.o. RSV (group III vs IV), not significant
# [9] = Group II single i.v. dose RSV + vehicle control
# [10] = Group IV single p.o. dose RSV + vehicle control
# [11] = 96 h co-exposure with 100 µM CP vs without CP
structure (smiles),measurement,setting,value
"COC(=O)[C@H](c1ccccc1Cl)N1CCc2sccc2C1 [CP, clopidogrel]",Cytotoxicity (MTT),[1]; 24 and 96 h incubation,no effect on cell viability; also recorded: did not show hepatotoxic effects
same,AST level in medium,"[1]; 96 h, presence of 100 µM CP",trend of increase
same,LDH level in medium,"[1]; 96 h, presence of 100 µM CP",missed statistical significance
same,"I1, peak plasma concentration at steady state",[2]; 75 mg CP,0.0010 [Itkonen et al. (2015)] μM
same,"I1, peak plasma concentration at steady state",[2]; 300 mg CP,0.0089 [Itkonen et al. (2015)] μM
same,Absorbed CP converted into inactive carboxylic acid metabolites (CPC) by CES1 in the liver,"[2]; at least, ref Jiang et al., 2015",85–90%
same,Excreted as inactive metabolites via feces,[2]; [6],~46%
same,Excreted as inactive metabolites via urine,[2]; [6],~50%
same,CP undergoing two-step oxidization by CYP enzymes to active metabolite,"[2]; ref Jiang et al., 2015",About 2%
same,Elimination half-life,"[2]; ref Sanofi-Aventis, 2011",6 h
same,Plasma concentration,"[3]; rats, after 8 h post-dosing",undetectable
same,Free medium concentration,[4]; human,0.026 to 0.40 nM
"CC(C)c1nc(N(C)S(C)(=O)=O)nc(-c2ccc(F)cc2)c1/C=C/[C@@H](O)C[C@@H](O)CC(=O)O [RSV, rosuvastatin]",IC50 at 96 h,[5],14.8 µM
same,Cytotoxicity (MTT),"[1]; 96 h, co-incubation with 100 µM CP where combined",dose-dependent cytotoxicity
same,Vss (Vss/F),"[3]; rat plasma, Group II: single i.v. RSV 5 mg/kg + p.o. vehicle control","1,148.40 ± 701.23 ml/kg"
same,RSV AUC in presence of CP relative to absence,"[3]; rats, i.v. RSV",1.76 fold
same,Decrease of RSV CL by multiple p.o. doses of CP,"[3]; rats, i.v. RSV (group I vs II)",42.62% and 42.6%
same,Increase of RSV plasma AUC0-infinity by multiple p.o. doses of CP,"[3]; rats, i.v. RSV (group I vs II)",76.29%
same,Increase of RSV plasma AUC0–12h by multiple p.o. doses of CP,"[3]; rats, i.v. RSV (group I vs II)",75.55%
same,Increase of RSV Cmax by multiple p.o. doses of CP,"[3]; rats, i.v. RSV (group I vs II), not significant",110.32%
same,RSV AUC in presence of CP relative to absence,"[3]; rats, p.o. RSV",1.87 fold
same,Decrease of RSV CL by multiple p.o. doses of CP,[3]; [7],43.27% and 43.3%
same,Increase of RSV plasma AUC0-infinity by multiple p.o. doses of CP,[3]; [7],87.48%
same,Increase of RSV plasma AUC0–12h by multiple p.o. doses of CP,[3]; [7],67.27%
same,Decrease of RSV Vss by multiple p.o. doses of CP,[3]; [8],49.42%
same,Increase of RSV Cmax by multiple p.o. doses of CP,[3]; [8],43.90%
same,clearance,"[3]; read-out: CL (CL/F), rat plasma, Group II: single i.v. RSV 5 mg/kg + p.o. vehicle control",59.1 mL/min/kg
same,ALT,rats; [9],54.00 ± 14.17 U/L
same,AST,rats; [9],210.50 ± 36.59 U/L
same,DBIL,rats; [9],1.12 ± 0.11 µmol/L
same,IBIL,rats; [9],0.88 ± 0.18 µmol/L
same,TBIL,rats; [9],2.00 ± 0.22 µmol/L
same,ALT,rats; [10],52.00 ± 6.68 U/L
same,AST,rats; [10],212.50 ± 33.72 U/L
same,DBIL,rats; [10],0.58 ± 0.33 µmol/L
same,IBIL,rats; [10],0.57 ± 0.36 µmol/L
same,TBIL,rats; [10],1.13 ± 0.42 µmol/L
same,Cell to medium concentration ratio of RSV,[4]; [11],significantly increased; also recorded: significantly enhanced
same,Intracellular concentration of RSV,[4]; [11],significantly increased; also recorded: significantly enhanced
